This note sets out measurements from patent US20260028354A1, “TETRAHYDRONAPHTHALENE DERIVATIVES AS ESTROGEN RECEPTOR DEGRADERS” (REGENT OF THE UNIVERSITY OF MICHIGAN, priority 2022, published 2026).

Test [1] in a line: Cell growth assay (WST-8) for "B" compounds. In kind it is cell-based. Particulars: T47D, read-out: Cell growth Inhibition in T47D cell line IC50. In short, it runs like this: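 Cells seeded at 1500/well overnight, then exposed to compounds for 4 days. 10% WST-8 added for 2.5 h at 37 °C and absorbance read at 450 nm. Growth given as absorbance relative to vehicle control, from three repeats.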

A further test deals with ER (Homo sapiens (Human), UniProt P03372). The test is described as follows: In-cell western blot analysis of ER for "B" compounds. In kind it is cell-based. As to conditions: 16 hours, read-out: ICW DC50. In short, it runs like this:
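In-cell western: fixed cells stained with primary antibodies (2 h, RT), then anti-rabbit-680 and anti-mouse-800 secondaries (1:1000, 1 h, RT), imaged on a LI-COR plate reader. Relative ER level in treated wells expressed against untreated and DMSO-treated wells set as 100%.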

Where two headings read alike, the source gives them in different places. Some results are limits rather than exact numbers.

ER, sequence (P03372 whole entry): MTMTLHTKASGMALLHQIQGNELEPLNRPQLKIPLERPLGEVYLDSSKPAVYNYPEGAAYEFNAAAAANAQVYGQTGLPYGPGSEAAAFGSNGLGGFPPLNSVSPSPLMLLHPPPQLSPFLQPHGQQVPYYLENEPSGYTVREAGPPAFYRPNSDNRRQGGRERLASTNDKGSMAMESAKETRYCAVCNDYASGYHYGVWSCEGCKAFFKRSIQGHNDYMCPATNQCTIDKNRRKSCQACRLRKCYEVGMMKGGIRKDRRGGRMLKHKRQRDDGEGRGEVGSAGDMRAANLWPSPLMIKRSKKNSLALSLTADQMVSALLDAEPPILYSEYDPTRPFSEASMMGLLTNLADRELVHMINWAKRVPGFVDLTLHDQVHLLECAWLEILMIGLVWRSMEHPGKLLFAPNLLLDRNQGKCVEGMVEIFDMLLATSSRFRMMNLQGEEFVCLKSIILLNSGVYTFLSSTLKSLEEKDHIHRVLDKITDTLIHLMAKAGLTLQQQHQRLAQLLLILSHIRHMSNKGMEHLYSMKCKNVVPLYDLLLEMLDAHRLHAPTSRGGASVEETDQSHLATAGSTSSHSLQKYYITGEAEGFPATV

As to `O=C1CC[C@H](NC(=O)c2ccc3c(n2)OC[C@H]2CN(CC4COC5(CCN(c6ccc([C@@H]7c8ccc(O)cc8CC[C@@H]7c7ccccc7)cc6)CC5)OC4)CCN32)C(=O)N1` [Compound B336, (R)-N-((S)-2,6-dioxopiperidin-3-yl)-3-((9-(4-((1R,2S)-6-hydroxy-2-phenyl-1,2,3,4-tetrahydronaphthalen-1-yl)phenyl)-1,5-dioxa-9-azaspiro[5.5]undecan-3-yl)methyl)-1,2,3,4,4a,5-hexahydropyrazino[1,2-d]pyrido[2,3-b][1,4]oxazine-8-carboxamide], the IC50 in test [1] (T47D cell line) fell in the range of 1 to 10 nM. For the same compound, the DC50 on ER is 10 to 100 nM.

For the compound `O=C1CCC(N2Cc3cc4c(cc3C2=O)OC[C@@H]2CN(CC3COC5(CN(c6ccc([C@@H]7c8ccc(O)cc8CC[C@@H]7c7ccccc7)cc6)C5)OC3)CCN42)C(=O)N1` (stereo partly drawn) [Compound B328, 3-((S)-3-((2-(4-((1R,2S)-6-hydroxy-2-phenyl-1,2,3,4-tetrahydronaphthalen-1-yl)phenyl)-5,9-dioxa-2-azaspiro[3.5]nonan-7-yl)methyl)-8-oxo-1,2,3,4,4a,5,8,10-octahydro-9H-pyrazino[1′,2′:4,5][1,4]oxazino[2,3-f]isoindol-9-yl)piperidine-2,6-dione], the IC50 in test [1] (T47D cell line) lay in the range of 1 to 10 nM. At ER, the DC50 lay in the range of 10 to 100 nM.

As to `O=C1CCC(N2Cc3cc4c(cc3C2=O)CN(CC(=O)N2CCC3(CC2)CCN(c2ccc([C@@H]5c6ccc(O)cc6CC[C@@H]5c5ccccc5)cc2)CC3)C4)C(=O)N1` (stereo partly drawn) [Compound B166, 3-(6-(2-(9-(4-((1R,2S)-6-hydroxy-2-phenyl-1,2,3,4-tetrahydronaphthalen-1-yl)phenyl)-3,9-diazaspiro[5.5]undecan-3-yl)-2-oxoethyl)-1-oxo-3,5,6,7-tetrahydropyrrolo[3,4-f]isoindol-2(1H)-yl)piperidine-2,6-dione], the IC50 in test [1] (T47D cell line) is < 1 nM. Further, the DC50 on ER is < 10 nM.

`O=C1CCC(N2Cc3cc4c(cc3C2=O)OC[C@@H]2CN(C(=O)CN3CCN(c5ccc([C@@H]6c7ccc(O)cc7CC[C@@H]6c6ccccc6)cc5)CC3)CCN42)C(=O)N1` (stereo partly drawn) [Compound B144, 3-((S)-3-(2-(4-(4-((1R,2S)-6-hydroxy-2-phenyl-1,2,3,4-tetrahydronaphthalen-1-yl)phenyl)piperazin-1-yl)acetyl)-8-oxo-1,2,3,4,4a,5,8,10-octahydro-9H-pyrazino[1′,2′:4,5][1,4]oxazino[2,3-f]isoindol-9-yl)piperidine-2,6-dione]: the IC50 in test [1] (T47D cell line) is < 1 nM. The DC50 at ER was in the range of 10 to 100 nM.

Turning to `O=C1CC[C@H](NC(=O)c2ccc3c(n2)OC[C@H]2CN(CC4CCC5(C4)CN(c4ccc([C@@H]6c7ccc(O)cc7CC[C@@H]6c6ccccc6)cc4)C5)CCN32)C(=O)N1` (stereo partly drawn) [Compound B360, (4aR)-N-((S)-2,6-dioxopiperidin-3-yl)-3-((2-(4-((1R,2S)-6-hydroxy-2-phenyl-1,2,3,4-tetrahydronaphthalen-1-yl)phenyl)-2-azaspiro[3.4]octan-6-yl)methyl)-1,2,3,4,4a,5-hexahydropyrazino[1,2-d]pyrido[2,3-b][1,4]oxazine-8-carboxamide], in test [1] (T47D cell line), the IC50 is > 10 nM. Also, the DC50 at ER is > 100 nM.

Regarding `O=C1CCC(N2Cc3c(ccc4c3OC[C@H]3CN(C[C@@H]5CCN(c6ccc([C@@H]7c8ccc(O)cc8CC[C@@H]7c7ccccc7)cc6)C5)CCN43)C2=O)C(=O)N1` (stereo partly drawn) [Compound B215, 3-((R)-7-(((S)-1-(4-((1R,2S)-6-hydroxy-2-phenyl-1,2,3,4-tetrahydronaphthalen-1-yl)phenyl)pyrrolidin-3-yl)methyl)-1-oxo-1,3,5,5a,6,7,8,9-octahydro-2H-pyrazino[1′,2′:4,5][1,4]oxazino[2,3-e]isoindol-2-yl)piperidine-2,6-dione], the IC50 in test [1] (T47D cell line) is 1 to 10 nM. The DC50 at ER is 10 to 100 nM.

As to `O=C1CCC(N2Cc3c(ccc4c3OC[C@H]3CN(CC5COC6(CN(c7ccc([C@@H]8c9ccc(O)cc9CC[C@@H]8c8ccccc8)cc7)C6)OC5)CCN43)C2=O)C(=O)N1` (stereo partly drawn) [Compound B327, 3-((R)-7-((2-(4-((1R,2S)-6-hydroxy-2-phenyl-1,2,3,4-tetrahydronaphthalen-1-yl)phenyl)-5,9-dioxa-2-azaspiro[3.5]nonan-7-yl)methyl)-1-oxo-1,3,5,5a,6,7,8,9-octahydro-2H-pyrazino[1′,2′:4,5][1,4]oxazino[2,3-e]isoindol-2-yl)piperidine-2,6-dione], in test [1] (T47D cell line), the IC50 is < 1 nM. For the same compound, the DC50 at ER was in the range of 10 to 100 nM.

As to `O=C1CCC(N2Cc3c(ccc4c3OC[C@@H]3CN(C(=O)CN5CC(Oc6ccc([C@@H]7c8ccc(O)cc8CC[C@@H]7c7ccccc7)cc6)C5)CCN43)C2=O)C(=O)N1` (stereo partly drawn) [Compound B248, 3-((S)-7-(2-(3-(4-((1R,2S)-6-hydroxy-2-phenyl-1,2,3,4-tetrahydronaphthalen-1-yl)phenoxy)azetidin-1-yl)acetyl)-1-oxo-1,3,5,5a,6,7,8,9-octahydro-2H-pyrazino[1′,2′:4,5][1,4]oxazino[2,3-e]isoindol-2-yl)piperidine-2,6-dione], the IC50 in test [1] (T47D cell line) was < 1 nM. In addition, on ER, the DC50 is 10 to 100 nM.

`O=C1CCC(N2Cc3cc4c(cc3C2=O)OC[C@@H]2CN(CC(=O)N3CC5(C3)CN(c3ccc([C@@H]6c7ccc(O)cc7CC[C@@H]6c6ccccc6)cc3)C5)CCN42)C(=O)N1` (stereo partly drawn) [Compound B208, 3-((S)-3-(2-(6-(4-((1R,2S)-6-hydroxy-2-phenyl-1,2,3,4-tetrahydronaphthalen-1-yl)phenyl)-2,6-diazaspiro[3.3]heptan-2-yl)-2-oxoethyl)-8-oxo-1,2,3,4,4a,5,8,10-octahydro-9H-pyrazino[1′,2′:4,5][1,4]oxazino[2,3-f]isoindol-9-yl)piperidine-2,6-dione]: the IC50 in test [1] (T47D cell line) is < 1 nM. For the same compound, on ER, the DC50 is < 10 nM.

With `O=C1CCC(N2Cc3c(ccc4c3OCC43CCN(CC(=O)N4CC5(CCN(c6ccc([C@@H]7c8ccc(O)cc8CC[C@@H]7c7ccccc7)cc6)C5)C4)CC3)C2=O)C(=O)N1` (stereo partly drawn) [Compound B212, 3-(1′-(2-(6-(4-((1R,2S)-6-hydroxy-2-phenyl-1,2,3,4-tetrahydronaphthalen-1-yl)phenyl)-2,6-diazaspiro[3.4]octan-2-yl)-2-oxoethyl)-6-oxo-6,8-dihydro-2H,7H-spiro[furo[2,3-e]isoindole-3,4′-piperidin]-7-yl)piperidine-2,6-dione], in test [1], the IC50 is < 1 nM. Also, the DC50 on ER was < 10 nM.

Turning to `O=C1CCC(N2C(=O)c3cc4c(cc3C2=O)CN(CC(=O)N2CCOC3(CCN(c5ccc([C@@H]6c7ccc(O)cc7CC[C@@H]6c6ccccc6)cc5)CC3)C2)C4)C(=O)N1` (stereo partly drawn) [Compound B325, 2-(2,6-dioxopiperidin-3-yl)-6-(2-(9-(4-((1R,2S)-6-hydroxy-2-phenyl-1,2,3,4-tetrahydronaphthalen-1-yl)phenyl)-1-oxa-4,9-diazaspiro[5.5]undecan-4-yl)-2-oxoethyl)-6,7-dihydropyrrolo[3,4-f]isoindole-1,3(2H,5H)-dione], in test [1] (T47D cell line), the IC50 fell in the range of 1 to 10 nM. Further, at ER, the DC50 lay within 10 to 100 nM.

On to `O=C1CC[C@H](NC(=O)c2ccc3c(n2)OC[C@H]2CN(CC4COC5(CCN(c6ccc([C@@H]7c8ccc(O)cc8CC[C@@H]7c7ccccc7)cc6)CC5)C4)CCN32)C(=O)N1` (stereo partly drawn) [Compound B236, (4aR)-N-((S)-2,6-dioxopiperidin-3-yl)-3-((8-(4-((1R,2S)-6-hydroxy-2-phenyl-1,2,3,4-tetrahydronaphthalen-1-yl)phenyl)-1-oxa-8-azaspiro[4.5]decan-3-yl)methyl)-1,2,3,4,4a,5-hexahydropyrazino[1,2-d]pyrido[2,3-b][1,4]oxazine-8-carboxamide], for which the IC50 in test [1] (T47D cell line) is < 1 nM. Also, on ER, the DC50 lay in the range of 10 to 100 nM.

Turning to `O=C1CCC(N2Cc3cc4c(cc3C2=O)OC[C@@H]2CN(C(=O)CN3CCC5(CC3)CCN(c3ccc([C@@H]6c7ccc(O)cc7CC[C@@H]6c6ccccc6)cc3)CC5)CCN42)C(=O)N1` (stereo partly drawn) [Compound B146, 3-((S)-3-(2-(9-(4-((1R,2S)-6-hydroxy-2-phenyl-1,2,3,4-tetrahydronaphthalen-1-yl)phenyl)-3,9-diazaspiro[5.5]undecan-3-yl)acetyl)-8-oxo-1,2,3,4,4a,5,8,10-octahydro-9H-pyrazino[1′,2′:4,5][1,4]oxazino[2,3-f]isoindol-9-yl)piperidine-2,6-dione], the IC50 in test [1] (T47D cell line) is < 1 nM. In addition, the DC50 at ER was < 10 nM.

Regarding `O=C1CCC(N2Cc3cc4c(cc3C2=O)CN(CC2COC3(CCN(c5ccc([C@@H]6c7ccc(O)cc7CC[C@@H]6c6ccccc6)cc5)CC3)OC2)C4)C(=O)N1` (stereo partly drawn) [Compound B355, 3-(6-((9-(4-((1R,2S)-6-hydroxy-2-phenyl-1,2,3,4-tetrahydronaphthalen-1-yl)phenyl)-1,5-dioxa-9-azaspiro[5.5]undecan-3-yl)methyl)-1-oxo-3,5,6,7-tetrahydropyrrolo[3,4-f]isoindol-2(1H)-yl)piperidine-2,6-dione], in test [1] (T47D cell line), the IC50 is < 1 nM. In addition, the DC50 at ER is 10 to 100 nM.

As to `O=C1CC[C@H](NC(=O)c2ccc3c(c2)OC[C@@H]2CN(CC4CCN(c5ccc([C@@H]6c7ccc(O)cc7CC[C@@H]6c6ccccc6)cc5)CC4)CCN32)C(=O)N1` [Compound B257, (S)-N-((S)-2,6-dioxopiperidin-3-yl)-3-((1-(4-((1R,2S)-6-hydroxy-2-phenyl-1,2,3,4-tetrahydronaphthalen-1-yl)phenyl)piperidin-4-yl)methyl)-1,2,3,4,4a,5-hexahydrobenzo[b]pyrazino[1,2-d][1,4]oxazine-8-carboxamide], the IC50 in test [1] (T47D cell line) lay in the range of 1 to 10 nM. Further, the DC50 at ER was > 100 nM.

In the case of `O=C1CC[C@H](NC(=O)c2ccc(N3CCN(CC4CCN(c5ccc([C@@H]6c7ccc(O)cc7CC[C@@H]6c6ccccc6)cc5)CC4)CC3)cn2)C(=O)N1` [Compound B316, N-((S)-2,6-dioxopiperidin-3-yl)-5-(4-((1-(4-((1R,2S)-6-hydroxy-2-phenyl-1,2,3,4-tetrahydronaphthalen-1-yl)phenyl)piperidin-4-yl)methyl)piperazin-1-yl)picolinamide], in test [1] (T47D cell line), the IC50 was in the range of 1 to 10 nM. In addition, the DC50 at ER is 10 to 100 nM.

The IC50 is the concentration needed to halve the response being measured.
